Results from patent US9556437B2, “FAT1 gene in cancer and inflammation” (DEPARTMENT OF BIOTECHNOLOGY (DBT), priority 2012, dated 2017).
Entries after “also recorded” stand apart in the source; their conditions may differ.

Experiments:
Assay type in all cases: cell-based, human
A172 cells = assay: Invasion assay, matrigel; conditions: A172siFAT1 vs siControl, P<0.01
Experimental: (§1) Migration and Invasion Assays: The modified Boyden chamber/matrigel assay was performed according to the manufacturer's directions (BD Biosciences, Bedford, Mass.). For in vitro migration assays, chambers with control inserts that lacked the matrigel coating were used. Transfections were carried out in U87MG and A172 cells and 48 hrs later 3×10^4 U87MG cells/well and 7×10^4 A172 cells/well were resuspended in serum-free DMEM and seeded in triplicate in matrigel-coated (1 mg/ml; BD Biosciences) and uncoated control inserts (8-μm pore-size, BD Bioscience, Bedford, Mass.). The remaining protocol was done as previously described.

U87MG cells [1] = assay: Invasion assay, matrigel; conditions: U87MGsiFAT1 vs siControl, P<0.01
Experimental: as §1

COX-2 promoter = COX-2 promoter luciferase assay; conditions: U87MG, vs siControl+DMSO; SR11302 10 μM, 48 hrs
Experimental: (§2) AP-1 and COX-2 Promoter Luciferase Assay: U87MG cells (40000 cells/well) were plated in 6-well plates in triplicate on day zero. On day 1, cells were transfected with siFAT1 and siControl. On day 2 cells were transiently transfected with 4×AP-1-luciferase reporter plasmids as described previously. Cells were transfected with 1 μg of AP-17× luciferase reporter plasmid, along with 50 ng of pRL-TK (Renilla luciferase) control plasmid using LIPOFECTAMINE2000 as the transfection reagent. After 48 hrs, the cells were lysed by 1× passive-lysis-buffer (Promega, Madison, Wis., USA) and assayed for luciferase activity as previously described. For COX-2 luciferase assay U87MG cells were transfected with siFAT1 and siControl on day 1 and after 4 hrs incubation were treated with 10 μM SR11302. On day2 cells were transiently transfected with COX-2 reporter plasmid and again treated with 10 μM SR11302. After 48 hrs, the cells were assayed for luciferase activity.

PDCD4 = assay: Western blot PDCD4 protein; conditions: U87MG, A172, U373MG and T98G, vs siControl
Experimental: Western Blotting Analyses: Cells were lysed in triple detergent buffer containing protease and phosphatase inhibitors (Sigma Aldrich), lysates were quantified by BCA kit (Pierce, Thermo Fisher Scientific, Rockford, Ill. USA) and electrophoresed in 10% SDS-PAGE and electroblotted on nitrocellulose membrane (Millipore, Billerica, Mass., USA). Membrane was blocked with 5% bovine serum albumin (BSA) in 1×TBS at 4° C. for overnight. Primary and secondary antibody was diluted in 5% BSA and 0.1% tween-20 in 1×TBS. Blot was incubated in primary antibody overnight at 4° C. followed by secondary antibody incubation for 2 hrs at room temperature. Blot was developed by BCIP-NBT (Promega, Madison, Wis., USA) and captured using Alpha Imager EP software.

U87MG cells [2] = assay: MTT assay; conditions: 24, 48, 72 and 96 hrs of transfection, vs siControl
Experimental: On day 1, siRNA transfection was carried out. 1 ml of OPTIMEM, 50 picomoles of siRNA (siControl and siFAT1) and 3 μl of LIPOFECTAMINE 2000 was used per well. Cells were then analyzed by flow-cytometery after 72 hrs of transfection to assess the cell cycle distribution of individual cells. Cells were fixed in 70% ethanol overnight at −20′C followed by propidium iodide (PI) staining. Florescence was measured on FACS (florescence activated cell sorter, BD Biosciences, Bedford, Mass.). […] On day 1, transfection was carried out. 50 μl of OPTIMEM, 2 picomoles of siRNA (control and FAT1 siRNA) and 0.5 μl of LIPOFECTAMINE 2000 was used per well. After 4 hrs incubation at 37° C., 50 μl 2× media was added per well. After every time point (24, 48, 72 and 96 hrs of transfection), media was removed from wells and 100 μl of MTT (0.2 mg/ml) was added per well and incubated for 2-4 hrs. The formazan crystals formed were dissolved by addition of 100 μl of DMSO and absorbance was measured at 570 nm.

c-jun = c-jun mRNA level by q-PCR; conditions: U87MGsiFAT1 vs U87MGsiControl
Experimental: Cell Culture and siRNA Transfection: The human glioma cell lines U87MG, U373, A172, T98G, GOS3 and SW1088 were obtained from ATCC; Rockville, Md., cultured in DMEM (Sigma-Aldrich, Switzerland) supplemented with 10% (v/v) FCS (Sigma-Aldrich), 3.7 g/l sodium bicarbonate (Sigma-Aldrich), Ciprofloxacin 10 μg/ml and 5% CO2 at 37° C. For transfection, 2×10^5 cells were seeded per 25 cm^2 flask. After 24 hrs, cells were transfected with FAT1 siRNA and universal medium GC control siRNA (Invitrogen) according to the manufacturer's protocol with a final concentration of 20 nM of siRNA using LIPOFECTAMINE 2000 (Invitrogen) and Opti-Mem media (Invitrogen). After 4 hrs of siRNA transfection, the media was supplemented with DMEM containing 2×FCS. The ability of each siRNA to mediate knockdown of FAT1 mRNA was confirmed using qRT-PCR. Photomicrographs of the cells were taken using an inverted phase contrast microscope (Nikon TMS, Phase contrast microscope, Japan). For simultaneous knockdown of FAT1 and PDCD4, siRNA from Dharmacon were used. Transfection was performed as earlier with 50 nM of FAT1 siRNA along with 50 nM of PDCD4 siRNA or 50 nM of control siRNA.
cDNA Synthesis and Quantitative PCR: Total RNA was isolated from cells at appropriate time point (vide supra) using TRIzol reagent (Invitrogen), quantified using a Nanodrop ND-1000 spectrophotometer. […]

[3] = tested on: AP-1 transcriptional activity; assay: AP-1 luciferase assay; conditions: U87MGsiFAT1 vs U87siControl, p<0.01
Experimental: as §2

For “siFAT1: FAT1 specific siRNA (Invitrogen), FAT Stealth RNAi siRNA-I (HSS103567), used for further experiments (sense CCCAACACACCUGUGGUCAUGGUAA; antisense UUACCAUGACCACAGGUGUGUUGGG; Stealth modification, chemistry not fully specified; listed as Homo sapiens)”, the reduction in invasion (A172 cells) was over 1.5 fold, the reduction in invasion (U87MG cells [1]) was over 2 fold and the “decrease in COX-2 luciferase activity” value (COX-2 promoter) was 1.8 fold. The PDCD4 protein level (PDCD4) was “increased”, the “cell viability / proliferation by MTT” value (U87MG cells [2]) was “no variation; also recorded: No significant difference” and the “c-jun mRNA level” value (c-jun) was “decreased by two folds; also recorded: reduced by two folds”. The “reduction in AP-1 luciferase activity” value [3] was 2 fold.
